Laboratory results from ChEMBL document CHEMBL1201862, “PubChem BioAssay data set” (2004).
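Dose response: 5 concentrations. Exposure: 48 h. Format: 96-well plates. Endpoint: linear interpolation; highest concentration if not reached. Here, GI50 denotes the concentration required for 50% inhibition of growth.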 Calls of active or inactive are those of the source. Cut-off read from the data, not from the text of the source: active = GI50 up to about 1.1 µM and inactive = higher.

Experiments:
Assay in all cases: NCI-60 cell line screen, 48 h
[1] = tested on: UACC-62
[2] = tested on: MDA-MB-231
[3] = tested on: OVCAR-4
[4] = tested on: SW-620
[5] = tested on: HOP-62
[6] = tested on: K562
[7] = tested on: HL-60
[8] = tested on: A498
[9] = tested on: CCRF-CEM
[10] = tested on: NCI-H460
[11] = tested on: Malme-3M
[12] = tested on: OVCAR-8
[13] = tested on: KM12
[14] = tested on: OVCAR-3
[15] = tested on: HCT-116
[16] = tested on: SF-295
[17] = tested on: SR
[18] = tested on: DU-145
[19] = tested on: IGROV-1
[20] = tested on: SK-OV-3

## CCCC(=O)O[C@H]1C=C2C[C@@]34SS[C@]5(CC6=C[C@H](OC(C)=O)[C@@H]7O[C@@H]7[C@H]6N5C3=O)C(=O)N4[C@@H]2[C@H]2O[C@H]21
[1]
  GI50: 0.0225 µM (active)
[2]
  GI50: 0.0254 µM (active)
[3]
  GI50: 0.0197 µM (active)
[4]
  GI50: 5.48 nM (active)
[5]
  GI50: 10 nM (active)
[6]
  GI50: 0.00923 µM (active)
[7]
  GI50: 0.0644 µM (active)
[8]
  GI50: 27.9 nM (active)
[9]
  GI50: 11.6 nM (active)
[10]
  GI50: 0.0218 µM (active)
[11]
  GI50: 0.02 µM (active)
[12]
  GI50: 6.44 nM (active)
[13]
  GI50: 184 nM (active)
[14]
  GI50: 0.00738 µM (active)
[15]
  GI50: 8.47 nM (active)
[16]
  GI50: 329 nM (active)
[17]
  GI50: < 0.005 µM (active)
[18]
  GI50: 0.0356 µM (active)
[19]
  GI50: 0.0168 µM (active)
[20]
  GI50: 0.0569 µM (active)

## COC(=O)[C@@H]1c2cc3c(c(O)c2[C@@H](OC2OC(C)C(OC)C(C)(OC)C2OC)C[C@]1(C)O)C(=O)c1c(O)cc2c(c1C3=O)O[C@H]1O[C@]2(C)[C@H](O)[C@@H](N(C)C)[C@@H]1O (stereo not given in full)
[1]
  GI50: 0.00386 µM (active)
[2]
  GI50: 0.0288 µM (active)
[3]
  GI50: 0.0191 µM (active)
[4]
  GI50: 4.56 nM (active)
[5]
  GI50: 35.9 nM (active)
[6]
  GI50: 0.0155 µM (active)
[7]
  GI50: 0.0148 µM (active)
[8]
  GI50: 0.507 nM (active)
[9]
  GI50: 11.4 nM (active)
[10]
  GI50: 0.00377 µM (active)
[11]
  GI50: 0.00453 µM (active)
[12]
  GI50: 5.08 nM (active)
[13]
  GI50: 6.5 nM (active)
[14]
  GI50: 0.0351 µM (active)
[15]
  GI50: 1.89 nM (active)
[16]
  GI50: 15.4 nM (active)
[17]
  GI50: 0.00294 µM (active)
[18]
  GI50: 0.0859 µM (active)
[19]
  GI50: 0.0101 µM (active)
[20]
  GI50: 0.0426 µM (active)

## Cc1c2cc[n+](C)cc2c(C)c2c1[nH]c1ccc(Cl)cc12
[1]
  GI50: 3.98 µM (inactive)
[2]
  GI50: 4.41 µM (inactive)
[3]
  GI50: 3.28 µM (inactive)
[4]
  GI50: 176 nM (active)
[5]
  GI50: 631 nM (active)
[6]
  GI50: 2.21 µM (inactive)
[7]
  GI50: 1.94 µM (inactive)
[8]
  GI50: 282 nM (active)
[9]
  GI50: 802 nM (active)
[10]
  GI50: 4.81 µM (inactive)
[11]
  GI50: 1.74 µM (inactive)
[12]
  GI50: 298 nM (active)
[13]
  GI50: 897 nM (active)
[14]
  GI50: 2.07 µM (inactive)
[15]
  GI50: 881 nM (active)
[16]
  GI50: 374 nM (active)
[17]
  GI50: 5.32 µM (inactive)
[18]
  GI50: 2.3 µM (inactive)
[19]
  GI50: 1.02 µM (active)
[20]
  GI50: 1.2 µM (inactive)

## O=C1OC[C@@H]2Cc3c([nH]c4ccccc34)[C@@H](c3ccc(O)cc3)N12
[1]
  GI50: 29.9 µM (inactive)
[2]
  GI50: 29.6 µM (inactive)
[3]
  GI50: 32.4 µM (inactive)
[4]
  GI50: 54100 nM (inactive)
[5]
  GI50: 35600 nM (inactive)
[6]
  GI50: 32.1 µM (inactive)
[7]
  GI50: 45 µM (inactive)
[8]
  GI50: 41700 nM (inactive)
[9]
  GI50: 30100 nM (inactive)
[10]
  GI50: 28.7 µM (inactive)
[11]
  GI50: 27.2 µM (inactive)
[12]
  GI50: 30100 nM (inactive)
[13]
  GI50: 22800 nM (inactive)
[14]
  GI50: 17.4 µM (inactive)
[15]
  GI50: 18700 nM (inactive)
[16]
  GI50: 26400 nM (inactive)
[17]
  GI50: 39.1 µM (inactive)
[18]
  GI50: 40.3 µM (inactive)
[19]
  GI50: 24.8 µM (inactive)
[20]
  GI50: > 56.8 µM (inactive)

## Nc1nc(N)nc(CCCc2nc(N)nc(N)n2)n1
[1]
  GI50: > 100 µM (inactive)
[2]
  GI50: > 100 µM (inactive)
[3]
  GI50: > 100 µM (inactive)
[4]
  GI50: > 100000 nM (inactive)
[5]
  GI50: > 100000 nM (inactive)
[6]
  GI50: > 100 µM (inactive)
[7]
  GI50: > 100 µM (inactive)
[8]
  GI50: > 100000 nM (inactive)
[9]
  GI50: > 100000 nM (inactive)
[10]
  GI50: > 100 µM (inactive)
[11]
  GI50: > 100 µM (inactive)
[12]
  GI50: > 100000 nM (inactive)
[13]
  GI50: > 100000 nM (inactive)
[14]
  GI50: > 100 µM (inactive)
[15]
  GI50: > 100000 nM (inactive)
[16]
  GI50: > 100000 nM (inactive)
[17]
  GI50: > 100 µM (inactive)
[18]
  GI50: > 100 µM (inactive)
[19]
  GI50: > 100 µM (inactive)
[20]
  GI50: > 100 µM (inactive)
